Data: US4169096A, “Antibiotic compounds” (priority 1977, dated 1979)
In brackets after ≈: the same amount, converted by molar mass. Like-named read-outs stand apart in the source and are kept apart here.

Tests used:
[1] = system: aerobic and anaerobic bacteria; assay: Antibacterial activity and spectrum (in words); assay type: cell-based
[2] = system: Streptococcus pyogenes A9604; assay: MIC, serial two-fold agar dilution, aerobic bacteria; assay type: cell-based; conditions: GC medium (Eiken)
[3] = system: Escherichia coli K-12 A9632; assay: as above; conditions: K12A9632
[4] = system: two anaerobic organisms (B. fragilis and C. perfringens); assay type: cell-based; conditions: broth dilution method
Stability in solution = assay type: physicochemical
[5] = system: Neisseria gonorrhoeae A15112; assay: MIC, serial two-fold agar dilution, aerobic bacteria; assay type: cell-based; conditions: GC medium (Eiken)
[6] = system: Klebsiella pneumoniae A9678; assay: as above; assay type: cell-based; conditions: Nutrient agar (Eiken), read-out: MIC
[7] = system: Neisseria gonorrhoeae A20154; assay: as above; assay type: cell-based; conditions: GC medium (Eiken)
[8] = system: Pseudomonas aeruginosa A9843; assay: as above; assay type: cell-based; conditions: test medium not given
B. fragilis A20928-1 [9] = assay: Inoculum size effect on MIC, GAM broth; assay type: cell-based; conditions: Bacteroides fragilis
C. perfringens A9635 [10] = assay: microbe, parasite or virus in culture; assay type: cell-based; conditions: Clostridium perfringens, A9635, read-out: MIC in GAM broth, inoculum size […] 10^6 cell/ml
aerobic organisms = assay: Antibacterial activity against aerobic bacteria (in words); assay type: cell-based; conditions: Bacillus species, streptococci, Neisseria meningtidis, N. gonorrhoeae, Hemophilus influenzae
[11] = pKa' by titration in aqueous ethanol; assay type: physicochemical; conditions: 46% aqueous ethanol
B. fragilis A20928-1 [12] = assay: Bactericidal activity (MIC & MBC); assay type: cell-based; conditions: Bacteroides fragilis, A209281, inoculum size 2.8 × 10^6 cell/ml; for MIC: broth; for MBC: growth of less than 100 colonies per plate, 18 hours at 37° C.
Micrococcus flavus = assay: MIC, serial two-fold agar dilution, aerobic bacteria; assay type: cell-based; conditions: Nutrient agar (Eiken), read-out: MIC
[13] = system: Streptococcus pyogenes A20201; assay: as above; assay type: cell-based; conditions: GC medium (Eiken)
[14] = system: Staphylococcus aureus 209P; assay: as above; assay type: cell-based; conditions: Nutrient agar (Eiken)
[15] = system: Staphylococcus aureus #52-34; assay: as above; assay type: cell-based
[16] = system: Hemophilus influenzae A20188; assay: as above; assay type: cell-based; conditions: Haemophilus influenzae, GC medium (Eiken)
C. perfringens A9635 [17] = assay: microbe, parasite or virus in culture; assay type: cell-based; conditions: Clostridium perfringens, A9635, 18 h
[18] = system: Bacillus subtilis PCI-219; assay: MIC, serial two-fold agar dilution, aerobic bacteria; assay type: cell-based
[19] = system: Neisseria meningitidis A21496; assay: as above; assay type: cell-based; conditions: GC medium (Eiken)
[20] = system: Diplococcus pneumoniae A9585; assay: as above; assay type: cell-based; conditions: Streptococcus pneumoniae, GC medium (Eiken)
C. perfringens A9635 [21] = assay: animal or person; assay type: in vivo, mice; conditions: Clostridium perfringens, A9635, in Mus musculus, 120 h, read-out: PD50
[22] = system: Staphylococcus aereus Smith; assay: MIC, serial two-fold agar dilution, aerobic bacteria; assay type: cell-based
Solubility = assay type: physicochemical
[23] = system: Neisseria meningitidis A20049; assay: MIC, serial two-fold agar dilution, aerobic bacteria; assay type: cell-based; conditions: GC medium (Eiken), read-out: MIC
in vivo = conditions: sc, LD50, sc
[24] = system: Escherichia coli Juhl A15119; assay: MIC, serial two-fold agar dilution, aerobic bacteria; assay type: cell-based; conditions: JUHLA15119, Nutrient agar (Eiken), read-out: MIC
B. fragilis A20928-1 [25] = assay: Inoculum size effect on MIC, GAM agar; assay type: cell-based; conditions: Bacteroides fragilis, A209281; inoculum size 1.2 × 10^6 cell/ml
S. pyogenes A20201 [26] = assay: Bactericidal activity (MIC & MBC); assay type: cell-based; conditions: Streptococcus pyogenes, A20201, 18 h
[27] = system: Streptococcus viridans A21354; assay: MIC, serial two-fold agar dilution, aerobic bacteria; assay type: cell-based; conditions: GC medium (Eiken)
[28] = system: Peptostreptococcus anaerobius B43; assay type: cell-based; conditions: GAM agar medium (Nissui)
Proteus morganii A9553 = assay: MIC, serial two-fold agar dilution, aerobic bacteria; assay type: cell-based; conditions: Morganella morganii, Nutrient agar (Eiken)
[29] = system: Hemophilus influenzae A9832; assay: as above; assay type: cell-based; conditions: Haemophilus influenzae, GC medium (Eiken)
Proteus mirabilis A9554 = assay: as above; assay type: cell-based; conditions: Nutrient agar (Eiken)
[30] = system: C. perfringens or S. pyrogenes; assay type: in vivo, mice; conditions: subcutaneous and oral
[31] = system: Bacillus cereus ATCC 10702 A; assay: MIC, serial two-fold agar dilution, aerobic bacteria; assay type: cell-based; conditions: ATCC10702, Nutrient agar (Eiken), read-out: MIC
S. pyogenes A20201 [32] = assay: Systemic infection with S. pyogenes in mice; assay type: in vivo; conditions: Streptococcus pyogenes, A20201, 120 h, just before challenge, determined after 5 days, read-out: PD50
[33] = system: Serratia marcescens A20019; assay: MIC, serial two-fold agar dilution, aerobic bacteria; assay type: cell-based; conditions: Nutrient agar (Eiken), read-out: MIC
[34] = system: two anaerobic and one aerobic organisms; assay: Bactericidal potential (in words); assay type: cell-based
Sarcina lutea PCI-1001 = assay: MIC, serial two-fold agar dilution, aerobic bacteria; assay type: cell-based; conditions: Micrococcus luteus, PCI1001
C. perfringens A9635 [35] = assay: microbe, parasite or virus in culture; assay type: cell-based, Clostridium perfringens
bacterial RNA polymerase = conditions: Antimicrobial Agents and Chemotherapy 1976, page 618; cited from earlier work
[36] = A209281, read-out: MIC in GAM broth, inoculum size […] 10^6 cell/ml
[37] = Nutrient agar (Eiken), read-out: MIC

COC(=O)C1C(C)OC2(C)CC(=O)C3OC12OC(C(C)/C=C(C)/C=C/C(=O)C1=C(O)CNC1=O)C3C (centres unmarked) [Bu-2313B]
LD50 (Acute toxicity; ip, listed as Bu-2313B (free acid)): 115 mg/kg
comparative acute toxicity (Acute toxicity; sc, ip and oral LD50): significantly lower toxicity than Bu-2313A
antibacterial activity [1]: exhibit antibacterial activity against a variety of anaerobic bacteria and some aerobic bacteria
comparative activity and antibacterial spectrum ([1]; in vitro): very similar to those of tirandamycin
MIC [2]: 0.4 µg/mL (≈ 0.794 µM)
MIC [3]: > 100 µg/mL
influence of inoculum size on MIC [4]: greatly affected by inoculum size
stability (Stability in solution; acidic solution): stable
stability (Stability in solution; alkaline solution, N/10 NaOH, room temperature, overnight): inactivated
MIC [5]: 0.8 µg/mL (≈ 1.59 µM)
MIC [6]: > 100 µg/mL
MIC [7]: 0.8 µg/mL (≈ 1.59 µM)
MIC [8]: > 100 µg/mL
MIC (B. fragilis A20928-1 [9]; A209281, inoculum size […] 10^7 cell/ml, read-out: MIC in GAM broth): 0.4 µg/mL (≈ 0.794 µM)
MIC (B. fragilis A20928-1 [9]; [36]): 0.013 µg/mL (≈ 0.0258 µM)
MIC (C. perfringens A9635 [10]): 25 µg/mL (≈ 49.6 µM)
susceptibility of aerobic strains (aerobic organisms): susceptible
pKa [11]: 4.9
MIC (B. fragilis A20928-1 [12]): 0.006 µg/mL (≈ 0.0119 µM)
MBC (B. fragilis A20928-1 [12]): > 0.8 µg/mL
MIC (Micrococcus flavus): 25 µg/mL (≈ 49.6 µM)
MIC [13]: 0.4 µg/mL (≈ 0.794 µM)
MIC [14]: 25 µg/mL (≈ 49.6 µM)
MIC [15]: 12.5 µg/mL (≈ 24.8 µM)
MIC [16]: 0.8 µg/mL (≈ 1.59 µM)
MBC (C. perfringens A9635 [17]): 12.5 µg/mL (≈ 24.8 µM)
MIC ([18]; PCI219, Nutrient agar (Eiken), read-out: MIC): 1.6 µg/mL (≈ 3.18 µM)
MIC [19]: 1.6 µg/mL (≈ 3.18 µM)
MIC [20]: 0.4 µg/mL (≈ 0.794 µM)
ED50 (C. perfringens A9635 [21]; po): 30 mg/kg
ED50 (C. perfringens A9635 [21]; sc): 6.25 mg/kg
MIC [22]: 12.5 µg/mL (≈ 24.8 µM)
solubility (Solubility; hexane and alkaline water): slightly soluble
solubility (Solubility; most organic solvents such as lower alcohols, ethyl acetate, chloroform and benzene): readily soluble
solubility (Solubility; water): practically insoluble
MIC [23]: 0.8 µg/mL (≈ 1.59 µM)
LD50 (in vivo): 225 mg/kg
MIC [24]: > 100 µg/mL
MIC (B. fragilis A20928-1 [25]): 0.05 µg/mL (≈ 0.0993 µM)
MBC (S. pyogenes A20201 [26]): 12.5 µg/mL (≈ 24.8 µM)
MIC [27]: 0.4 µg/mL (≈ 0.794 µM)
MIC [28]: 0.4 µg/mL (≈ 0.794 µM)
MIC (Proteus morganii A9553): > 100 µg/mL
MIC [29]: 0.4 µg/mL (≈ 0.794 µM)
MIC (Proteus mirabilis A9554): > 100 µg/mL
protection against systemic infections [30]: fairly good protection
MIC [31]: 0.8 µg/mL (≈ 1.59 µM)
ED50 (S. pyogenes A20201 [32]; po, NA: no activity): 25 mg/kg
ED50 (S. pyogenes A20201 [32]; sc): 9 mg/kg
MIC [33]: > 100 µg/mL
antibacterial action [34]: bacteriostatic rather than bactericidal
MIC (Sarcina lutea PCI-1001): 12.5 µg/mL (≈ 24.8 µM)

CC(/C=C/C(=O)C1=C(O)CNC1=O)=C\C(C)C1OC2(C)OC(C(=O)C3OC32C)C1C (centres unmarked) [Tirandamycin, reference compound]
MIC [2]: 0.8 µg/mL (≈ 1.92 µM)
MIC [3]: > 100 µg/mL
MIC [6]: > 100 µg/mL
MIC [8]: > 100 µg/mL
MIC (B. fragilis A20928-1 [9]; [36]): 0.006 µg/mL (≈ 0.0144 µM)
MIC (C. perfringens A9635 [10]): 12.5 µg/mL (≈ 29.9 µM)
MIC (B. fragilis A20928-1 [12]): 0.025 µg/mL (≈ 0.0599 µM)
MBC (B. fragilis A20928-1 [12]): > 0.8 µg/mL
MIC (C. perfringens A9635 [35]; Clostridium perfringens, A9635, read-out: MIC in GAM agar): 0.8 µg/mL (≈ 1.92 µM)
MIC in GAM agar (C. perfringens A9635 [35]; inoculum size 7 × 10^6 cell/ml): 0.8 µg/mL (≈ 1.92 µM)
MIC (Micrococcus flavus): 25 µg/mL (≈ 59.9 µM)
MIC [13]: 0.8 µg/mL (≈ 1.92 µM)
MIC [14]: 100 µg/mL (≈ 240 µM)
MIC [15, 37]: 50 µg/mL (≈ 120 µM)
inhibition of bacterial RNA polymerase (bacterial RNA polymerase): inhibitor of bacterial RNA polymerase in a manner similar to streptolydigin
MIC [16]: 0.8 µg/mL (≈ 1.92 µM)
MBC (C. perfringens A9635 [17]): 3.1 µg/mL (≈ 7.43 µM)
MIC ([18]; PCI219): 3.1 µg/mL (≈ 7.43 µM)
MIC [19]: 0.8 µg/mL (≈ 1.92 µM)
ED50 (C. perfringens A9635 [21]; po): 60 mg/kg
ED50 (C. perfringens A9635 [21]; sc): 17 mg/kg
MIC [22, 37]: > 100 µg/mL
MIC [23]: 0.8 µg/mL (≈ 1.92 µM)
MIC [24]: > 100 µg/mL
MBC (S. pyogenes A20201 [26]): > 12.5 µg/mL
MIC (Proteus morganii A9553): > 100 µg/mL
MIC (Proteus mirabilis A9554): > 100 µg/mL
ED50 (S. pyogenes A20201 [32]; po, NA: no activity): 50 mg/kg
ED50 (S. pyogenes A20201 [32]; sc): 9.7 mg/kg
MIC [33]: > 100 µg/mL
MIC (Sarcina lutea PCI-1001; [37]): 50 µg/mL (≈ 120 µM)
